Experimental data taken from patent US20260209260A1, “VECTORIZED NHC IRIDIUM(III) COMPLEXES AND USE THEREOF IN PHOTODYNAMIC THERAPY AND/OR DIAGNOSTIC” (CENTRE NATIONAL DE LA RECHERCHE SCIENTIFIQUE, priority 2022, published 2026).
Read-outs that look alike come from different tables or passages of the source.

Experiments:
[1] = Lipophilicity: octanol-water partition coefficient, shake-flask method
Experimental: The octanol-water partition coefficients (P) of all the complexes were determined using a shake-flask method^8. Water (100 mL, distilled after milli-Q purification) and n-octanol (100 mL, Sigma Aldrich, ACS spectrophotometric grade, ≥99%) were shaken together for 24 h to allow saturation of both phases. Stock solutions of the compounds ([…]) were prepared in the aqueous phase. Aliquots (2 mL) of each of these stock solutions were then added to an equal volume of the n-octanol phase. The resultant biphasic solution was mixed for 15 min and then centrifuged (3000 tr/min, 5 min) to separate the phases. The concentrations of the complex in the organic and aqueous phases were then determined using UV absorbance spectroscopy (260 nm). The blank is the water saturated with n-octanol. Log P was defined as logarithm of the ratio of the concentrations of the complex in the organic and aqueous phases (values reported are the means of at least three separated determinations).
The Log P values have been determined by a classical shake-flask method.

[2] = Emission lifetime measurement; format: physicochemical
Experimental: Fluorescence lifetime measurements were performed by an Edinburgh FLS920 spectrofluorimeter equipped with a TCC900 card for data acquisition in time-correlated single-photon counting experiments (0.5 ns time resolution) with a D2 lamp and an LDH—P-C-405 pulsed diode laser. The estimated experimental error is 2 nm on the band maximum (5% on the lifetime, 10% on the fluorescence quantum yield).
The emission lifetimes of biotin-vectorized complexes (I-a) to (I-l) range from 138 ns to 411 ns, among them, the lifetime of biotin-vectorized complexes (I-c), (I-e), (I-k) are 411, 224, and 322 ns respectively. The emission lifetimes of FTS-vectorized complexes (II-a) to (II-l) range from 167 ns to 486 ns, among them, the lifetime of FTS-vectorized complexes (II-c) and (II-k) are 319 and 486 ns respectively. The emission lifetimes of PSMA-vectorized complexes (III-a) to (III-l) are in the range of 159-649 ns, among them, the lifetime of complexes (III-a) and (III-k) were 248 and 649 ns, respectively. The emission lifetimes of Fc-vectorized complexes (IV-a) to (IV-l) are in the range of 178-228 ns.

[3] = Luminescence emission spectra and quantum yield; format: physicochemical; settings: for ΦP emission phosphorescence quantum yield: room temperature, reference POPOP in hexane or rhodamine B in ethanol; for λem: CH2Cl2, room temperature, λexc 365 nm or 470 nm
Experimental: Fluorescence and phosphorescence emission spectra were obtained with a HORIBA JOBIN YVON, fluromax-4 and spectrofluorometer.
Luminescence quantum yields were measured according to the method of Demas and Crosby, on solution samples at RT. The quantum yield is defined as: […]
Where ΦP is the quantum yield of the sample, ΦR is the know quantum yield of the reference standard. […].
The luminescence spectra of vectorized iridium(III) complexes were determined in CH2Cl2 at room temperature (Table 3).

[4] = tested on: PC-3 prostate cancer cells (PSMA-negative); experiment: Cell viability assay (MTT), dark and blue light; format: cell-based, Human; settings: for SI (vs NIH-3T3) PC-3 Blue: blue light 458 nm; for Photosensitizing index (PI) PC-3: dark vs blue light 458 nm
Experimental: (§1) Cells were grown in humidified incubators at 37° C. in 5% CO2. Murine MC3T3 osteoblast and NIH-3T3 fibroblast cells-used as non-tumor cell models-were cultured in a-MEM medium and DMEM medium supplemented with 10% fetal bovine serum (FBS) and 1% Penicillin/Streptomycin (P/S) antibiotics, respectively. Human T24 bladder, MGHU3 bladder, Scaber bladder, A549 lung, MCF7 breast, MiaPaCa2 pancreas cancer cells were cultured in DMEM medium supplemented with 10% FBS and 1% P/S antibiotics. Human ASPC-1 pancreas, PC-3 prostate, DU-145 prostate, C4-2B prostate and 22rV1 prostate cancer cells were cultured in RPMI medium supplemented with 10% FBS and 1% P/S antibiotics. Human Hela cervix and HepG2 liver cancer cells were cultured EMEM medium supplemented with 10% FBS and 1% P/S antibiotics.
(§2) MTT reagent (3-(4,5-dimethylthiazol-2-yl)-2,5-diphenyltetrazolium bromide) was used to determine cell death as originally described by Mosmann. Briefly, cells were seeded from 5,000 to 10,000 cells/well in 24-well plates (1 mL) depending on the cell type and allowed to attach overnight. The complexes were prepared in DMSO. The concentration of the complexes was calculated based on the elemental composition of the complexes determined by the elemental analyses. All cell viability experiments were carried out with a fixed concentration of 0.1% (v/v) DMSO. After 72 h of treatment, cells were incubated at 37° C. and 5% CO2 with 25 μL of MTT solution (5 mg/ml; Sigma-Aldrich) in 24-well plates for 3 to 4 h. After solubilization with 500 μL of DMSO, formazan was quantified spectrophotometrically with a microplate reader at 570 nm absorbance (ClarioSTAR, BMG LabTech). […] All the results were calculated from data obtained in at least three independent experiments performed in triplicate.
(§3) Irradiation was conducted using an in-house device, a series of blue light LEDs selected according to the absorption spectra of the compounds at 458 nm wavelength with an emitted power of 9.6 Watts. The light fluence was measured at 458 nm with an optical power meter Thorlabs PM100A at different distances between the cell layer and the light source (5 and 10 cm).
(§4) Two sets of experiments were conducted in parallel for each complex to be studied:
(§5) 1. The cells were incubated with the different complexes (in the dark) for 72 h.
(§6) 2. The cells were incubated for 8 h with the different complexes (in the dark), then irradiated for 10 min, followed by an incubation in the dark up to 72 h.

[5] = tested on: C4-2B prostate cancer cells (PSMA-positive); experiment: Cell viability assay (MTT), dark and blue light; format: cell-based, Human; settings: for Photosensitizing index (PI) C4-2b: dark vs blue light 458 nm
Experimental: as §1, §2, §3, §4, §5, §6

[6] = UV/Vis absorption spectra; format: physicochemical; settings: room temperature; for maximum absorption, lowest-lying bands in the visible region over 360 nm: CH2Cl2 or CH2Cl2/MeOH (1:1); for λmax (nm) ε (M^−1 · cm^−1): air-saturated CH2Cl2 or CH2Cl2/MeOH (1:1), 50 μM, ε in brackets, sh = shoulder
Experimental: UV/Vis absorption spectra were recorded at RT on solutions contained in quartz cuvettes (optical pathlength 1 cm, Hellma®) with a PerkinElmer® UV/VIS/NIR spectrophotometer Lambda 950 and a PerkinElmer® detector UV/VIS/NIR Accessory 2D Detector Module.

[7] = tested on: NIH-3T3 fibroblast cells (non-tumor); experiment: Cell viability assay (MTT), dark and blue light; format: cell-based, Murine; settings: for Photosensitizing index (PI) NIH-3T3: dark vs blue light 458 nm
Experimental: as §1, with “Human ASPC-1 pancreas, PC-3 prostate, DU-145 prostate, C4-2B prostate and 22rV1 prostate cancer cells were cultured in RPMI medium supplemented with 10% FBS and 1% P/S antibiotics.” left out
as §2, §4, §5, §6

[8] = n-octanol/water, shake-flask, mean of at least three determinations
[9] = 8 h in the dark, blue light 458 nm 10 min, then dark up to 72 h, read-out: GI50 PC-3 Blue
[10] = PC3, blue light, read-out: GI50
[11] = in the dark, 72 h, read-out: GI50 PC-3 Dark
[12] = 8 h in the dark, blue light 458 nm 10 min, then dark up to 72 h, read-out: GI50 NIH-3T3 Blue
[13] = NIH-3T3, blue light, read-out: GI50
[14] = in the dark, 72 h, read-out: GI50 NIH-3T3 Dark

## Cc1ccc2[c](c1)[Ir-3]13([c]4cc(C)ccc4-c4cccc[n+]41)([c]1n(CCC(=O)NCCCC[C@H](NC(=O)N[C@@H](CCC(=O)O)C(=O)O)C(=O)O)cc[n+]1-c1cccc[n+]13)[n+]1ccccc1-2.F[P-](F)(F)(F)(F)F [III-b]
[1]; [8]
  Log P: −0.14 ± 0.04
[2]
  τ1 emission lifetime: 194 ns
[3]
  ΦP emission phosphorescence quantum yield: 1.8%
[4]; [9]
  GI50: > 100 µM
[4]; [10]
  GI50: > 100 µM
[4]; PC3, dark, read-out: GI50
  GI50: > 100 µM
[4]
  SI (vs NIH-3T3) PC-3 Blue: 1.0
  Photosensitizing index (PI) PC-3: did not show any photosensitizing effect
[4]; [11]
  GI50: > 100 µM
[5]
  Photosensitizing index (PI) C4-2b: did not show any photosensitizing effect
[6]
  maximum absorption, lowest-lying bands in the visible region over 360 nm: around 380 nm
  λmax (nm) ε (M^−1 · cm^−1): 310 (sh) (23310), 379 (7615) nm (M^−1 · cm^−1)
[7]; [12]
  GI50: > 100 µM
[7]; [13]
  GI50: > 100 µM
[7]; NIH-3T3, dark, read-out: GI50
  GI50: > 100 µM
[7]
  Photosensitizing index (PI) NIH-3T3: did not show any photosensitizing effect
[7]; [14]
  GI50: > 100 µM

## F[P-](F)(F)(F)(F)F.O=C(O)CC[C@H](NC(=O)N[C@@H](CCCCNC(=O)CCn1cc[n+]2[c]1[Ir-3]13([c]4ccccc4-c4ccc5ccccc5[n+]41)([c]1ccccc1-c1ccc4ccccc4[n+]13)[n+]1ccccc1-2)C(=O)O)C(=O)O [III-g]
[1]
  Log P: 0.33 ± 0.01
[2]
  τ1 emission lifetime: 191 ns
[3]
  λem: 593 nm
  ΦP emission phosphorescence quantum yield: 0.1%
[4]; [9]
  GI50: 48.7 µM
[4]; [10]
  GI50: 48.7 µM
[4]; PC3, dark vs blue light
  Photosensitizing index (PI): >2.1
[4]; PC3, dark, read-out: GI50
  GI50: > 100 µM
[4]
  SI (vs NIH-3T3) PC-3 Blue: >2.1
[4]; [11]
  GI50: ≥ 100 µM
[5]; 8 h in the dark, blue light 458 nm 10 min, then dark up to 72 h, read-out: GI50 C4-2b Blue
  GI50: 17.6 µM
[5]; C4-2b, blue light, read-out: GI50
  GI50: 17.6 µM
[5]; C4-2b, dark vs blue light
  Photosensitizing index (PI): 1.2
[5]; C4-2b, dark, read-out: GI50
  GI50: 21.3 µM
[5]; blue light 458 nm
  SI (vs NIH-3T3) C4-2b Blue: >5.7
[5]; in the dark, 72 h, read-out: GI50 C4-2b Dark
  GI50: 21.3 µM
[6]
  λmax (nm) ε (M^−1 · cm^−1): 334 (18100), 436 (4280) nm (M^−1 · cm^−1)
[7]; [12]
  GI50: > 100 µM
[7]; [13]
  GI50: > 100 µM
[7]; NIH-3T3, dark, read-out: GI50
  GI50: > 100 µM
[7]; [14]
  GI50: > 100 µM

## COC(=O)c1cccc2[c]1[Ir-3]13([c]4c(C(=O)OC)cccc4-c4cccc[n+]41)([c]1n(CCC(=O)NCCCC[C@H](NC(=O)N[C@@H](CCC(=O)O)C(=O)O)C(=O)O)cc[n+]1-c1cccc[n+]13)[n+]1ccccc1-2.F[P-](F)(F)(F)(F)F [III-d]
[1]; [8]
  Log P: −0.52 ± 0.01
[2]
  τ1 emission lifetime: 219 ns
[3]
  λem: 498 nm
  ΦP emission phosphorescence quantum yield: 2.1%
[4]; [9]
  GI50: > 100 µM
[4]; [10]
  GI50: > 100 µM
[4]; PC3, dark, read-out: GI50
  GI50: > 100 µM
[4]
  SI (vs NIH-3T3) PC-3 Blue: 1.0
  Photosensitizing index (PI) PC-3: did not show any photosensitizing effect
[4]; [11]
  GI50: > 100 µM
[5]
  Photosensitizing index (PI) C4-2b: did not show any photosensitizing effect
[6]
  maximum absorption, lowest-lying bands in the visible region over 360 nm: around 370 nm
  λmax (nm) ε (M^−1 · cm^−1): 370 (13650), 452 (sh) (565) nm (M^−1 · cm^−1)
[7]; [12]
  GI50: > 100 µM
[7]; [13]
  GI50: > 100 µM
[7]; NIH-3T3, dark, read-out: GI50
  GI50: > 100 µM
[7]
  Photosensitizing index (PI) NIH-3T3: did not show any photosensitizing effect
[7]; [14]
  GI50: > 100 µM
